Experiments:
[1] = tested on: wild type (Col-0) Arabidopsis; assay: Copper tolerance germination assay; assay type: in vivo
Protocol: A screen for copper tolerance was developed in order to identify and isolate gene(s) whose altered expression confers copper tolerance and allows normal plant growth and development in the presence of an inhibitory level of copper. It has been experimentally determined that the lowest completely inhibitory concentration (LCI) of copper is 160 μM for hypocotyl and cotyledon expansion and the development of true leaves in wild type (Col-0) Arabidopsis.
For the primary screen, pooled T2 lines are plated on media supplemented with 160 μM CuSO4. Controls include wild type (Col-0 cand Shadara) plants germinating on plates with no copper and copper at the Col-0 LCI for germination. Plates are incubated 3 days at 4° C., then transferred to the growth room and incubated an additional 10 days.
Copper sensitivity is evaluated with germination assays, which are performed as described above for salt resistance screens.

[2] = tested on: wild-type cotyledons in Arabidopsis
Protocol: A salt tolerance screen is performed to identify and isolate gene(s) that confer salt (NaCl) tolerance in Arabidopsis.
A primary screen is conducted with T1 plants, using a germination assay. T1 seed is plated evenly in media supplemented with 250 mM NaCl. For negative and positive controls, wild type (Col-O) seed is plated in plates with and without, respectively, the supplemental NaCl. Plates are incubated for two days at 4° C., then transferred to a growth room and incubated an additional 7 to 14 days.
Salt tolerant germination is classified in five stages: 1) imbibation, emergence of radicle; 2) expansion and greening of cotyledons; 3) elongation of the hypocotyl; 4) elongation of the root and formation of root hairs; 5) development of true leaves.

Compound | concentration at which negative gravitropism of the hypocotyl is completely inhibited [1] | concentration at which root elongation is inhibited [1] | lowest completely inhibitory concentration (LCI) ([1]; hypocotyl and cotyledon expansion and development of true leaves) | concentration that completely abolishes expansion and green pigmentation of cotyledons [2]
O=S(=O)([O-])[O-].[Cu+2] [copper, CuSO4] | 50 µM | 100 µM | 160 µM | 
[Cl-].[Na+] [NaCl] |  |  |  | greater than 250 mM
